Assay results: PubChem BioAssay AID1259411 (Chemical Carcinogenesis Research Information System (CCRIS), 2018)
Active and inactive are the calls of the source. The rule behind the calls is not given here.

Tested on: rodent carcinogenicity bioassays, tumor incidence
Test: CCRIS carcinogenicity studies
Details: Dose: 0, Dose: 0
In short: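 Archive of carcinogenicity, mutagenicity, tumor promotion and tumor inhibition results drawn from journals, NCI reports and other sources, expert-reviewed; covers 1985-2011 and is no longer updated.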

C=C(C)[C@H]1Cc2c(ccc3c2O[C@@H]2COc4cc(OC)c(OC)cc4[C@@H]2C3=O)O1
carcinogen call (Species: MOUSE, Strain/Sex: B6C3F1/FEMALE, Route: ORAL, 600, 1200 PPM IN DIET FOR 103 WK (STUDY DURATION: 105 WK), 600, 1200 PPM IN DIET FOR 103 WK (STUDY DURATION: 105 WK)): inactive; negative
carcinogen call (Species: MOUSE, Strain/Sex: B6C3F1/MALE, Route: ORAL, 600, 1200 PPM IN DIET FOR 103 WK (STUDY DURATION: 105 WK), 600, 1200 PPM IN DIET FOR 103 WK (STUDY DURATION: 105 WK)): inactive; negative
carcinogen call (Species: RAT, Strain/Sex: F344/FEMALE, Route: ORAL, 38, 75 PPM IN DIET FOR 103 WK (STUDY DURATION: 105 WK), 38, 75 PPM IN DIET FOR 103 WK (STUDY DURATION: 105 WK)): inactive; negative
carcinogen call (Species: RAT, Strain/Sex: F344/MALE, Route: ORAL, 38, 75 PPM IN DIET FOR 103 WK (STUDY DURATION: 105 WK), 38, 75 PPM IN DIET FOR 103 WK (STUDY DURATION: 105 WK), Tumor Site: Type of Lesion: PARATHYROID GLAND: ADENOMA): equivocal
carcinogen call (Species: RAT, Strain/Sex: WISTAR/FEMALE, Route: INTRAPERITONEAL, 1, 2 MG/KG IN SUNFLOWER OIL 5 D/WK FOR 8 WK (STUDY DURATION: 18 MO), 1, 2 MG/KG IN SUNFLOWER OIL 5 D/WK FOR 8 WK (STUDY DURATION: 18 MO)): inactive; negative
carcinogen call (Species: RAT, Strain/Sex: WISTAR/FEMALE, Route: INTRAPERITONEAL, 1, 2 MG/KG IN SUNFLOWER OIL/CHLOROFORM (9:1) 5 D/WK FOR 8 WK (STUDY DURATION: 18 MO), 1, 2 MG/KG IN SUNFLOWER OIL/CHLOROFORM (9:1) 5 D/WK FOR 8 WK (STUDY DURATION: 18 MO)): inactive; negative

[Ga]#[As]
carcinogen call (Species: MOUSE, Strain/Sex: B6C3F1/FEMALE, Route: INHALATION, 0.1, 0.5, 1 MG/M3 6 HR/D 5D/WK FOR 106 WK (STUDY DURATION: 106 WK), 0.1, 0.5, 1 MG/M3 6 HR/D 5D/WK FOR 106 WK (STUDY DURATION: 106 WK)): inactive; negative
carcinogen call (Species: MOUSE, Strain/Sex: B6C3F1/MALE, Route: INHALATION, 0.1, 0.5, 1 MG/M3 6 HR/D 5D/WK FOR 105 WK (STUDY DURATION: 105 WK), 0.1, 0.5, 1 MG/M3 6 HR/D 5D/WK FOR 105 WK (STUDY DURATION: 105 WK)): inactive; negative
carcinogen call (Species: MOUSE, Strain/Sex: ICR/MALE, Route: INTRAPERITONEAL, 48, 480 MG/KG AS GALLIUM SUSPENDED IN OLIVE OIL ONCE (STUDY DURATION: 18 MO), 48, 480 MG/KG AS GALLIUM SUSPENDED IN OLIVE OIL ONCE (STUDY DURATION: 18 MO)): inactive; negative
carcinogen call (Species: MOUSE, Strain/Sex: ICR/MALE, Route: SUBCUTANEOUS, 48, 480 MG/KG AS GALLIUM SUSPENDED IN OLIVE OIL ONCE (STUDY DURATION: 18 MO), 48, 480 MG/KG AS GALLIUM SUSPENDED IN OLIVE OIL ONCE (STUDY DURATION: 18 MO)): inactive; negative
carcinogen call (Species: RAT, Strain/Sex: F344/N/FEMALE, Route: INHALATION, 0.01, 0.1, 1 MG/M3 6 HR/D 5D/WK FOR 105 WK (STUDY DURATION: 105 WK), 0.01, 0.1, 1 MG/M3 6 HR/D 5D/WK FOR 105 WK (STUDY DURATION: 105 WK), Tumor Site: Type of Lesion: LUNG: ALVEOLAR/BRONCHIOLAR ADENOMA): active; positive
carcinogen call (Species: RAT, Strain/Sex: F344/N/MALE, Route: INHALATION, 0.01, 0.1, 1 MG/M3 6 HR/D 5D/WK FOR 105 WK (STUDY DURATION: 105 WK), 0.01, 0.1, 1 MG/M3 6 HR/D 5D/WK FOR 105 WK (STUDY DURATION: 105 WK)): inactive; negative

C=CCc1ccc(OC)c(OC)c1
carcinogen call (Species: MOUSE, Strain/Sex: B6C3F1/FEMALE, Route: GAVAGE, 37, 75, 150 MG/KG BW IN 0.5% METHYLCELLULOSE 5 D/WK FOR 105 WK (STUDY DURATION: 105 WK), 37, 75, 150 MG/KG BW IN 0.5% METHYLCELLULOSE 5 D/WK FOR 105 WK (STUDY DURATION: 105 WK), Tumor Site: Type of Lesion: LIVER: HEPATOCELLULAR ADENOMA, HEPATOCELLULAR CARCINOMA, HEPATOBLASTOMA): active; positive
carcinogen call (Species: MOUSE, Strain/Sex: B6C3F1/MALE, Route: GAVAGE, 37, 75, 150 MG/KG BW IN 0.5% METHYLCELLULOSE 5 D/WK FOR 105 WK (STUDY DURATION: 105 WK), 37, 75, 150 MG/KG BW IN 0.5% METHYLCELLULOSE 5 D/WK FOR 105 WK (STUDY DURATION: 105 WK), Tumor Site: Type of Lesion: LIVER: TUMOR): active; positive
carcinogen call (Species: RAT, Strain/Sex: F344/N/FEMALE, Route: GAVAGE, 37, 75, 150 MG/KG BW IN 0.5% METHYLCELLULOSE 5D/WK FOR 105 WK (STUDY DURATION: 105 WK), 37, 75, 150 MG/KG BW IN 0.5% METHYLCELLULOSE 5D/WK FOR 105 WK (STUDY DURATION: 105 WK), Tumor Site: Type of Lesion: LIVER: HEPATOCELLULAR ADENOMA OR CARCINOMA, GLANDULAR STOMACH: BENIGN OR MALIGNANT NEUROENDOCRINE TUMOR): active; positive
carcinogen call (Species: RAT, Strain/Sex: F344/N/FEMALE, Route: GAVAGE, 300 MG/KG BW IN 0.5% METHYLCELLULOSE 5D/WK FOR 52 WK (STUDY DURATION: 105 WK), Tumor Site: Type of Lesion: ADRENAL MEDULLA: BENIGN PHEOCHROMOCYTOMA, LIVER: HEPATOCELLULAR ADENOMA OR CARCINOMA, HEPATOCHOLANGIOMA OR HEPATOCHOLANG): active; positive
carcinogen call (Species: RAT, Strain/Sex: F344/N/MALE, Route: GAVAGE, 37, 75, 150 MG/KG BW IN 0.5% METHYLCELLULOSE 5 D/WK FOR 105 WK (STUDY DURATION: 105 WK), 37, 75, 150 MG/KG BW IN 0.5% METHYLCELLULOSE 5 D/WK FOR 105 WK (STUDY DURATION: 105 WK), Tumor Site: Type of Lesion: LIVER: HEPATOCELLULAR ADENOMA OR CARCINOMA, GLANDULAR STOMACH: MALIGNANT NEUROENDOCRINE TUMOR, KIDNEY: ADENOMA, MAMMARY, Tumor Site: Type of Lesion: LIVER: HEPATOCELLULAR ADENOMA OR CARCINOMA, GLANDULAR STOMACH: MALIGNANT NEUROENDOCRINE TUMOR, KIDNEY: ADENOMA, MAMMARY): active; positive
carcinogen call (Species: RAT, Strain/Sex: F344/N/MALE, Route: GAVAGE, 300 MG/KG BW IN 0.5% METHYLCELLULOSE 5 D/WK FOR 52 WK (STUDY DURATION: 105 WK), Tumor Site: Type of Lesion: KIDNEY: RENAL TUBULE ADENOMA OR CARCINOMA, LIVER: HEPATOCELLULAR ADENOMA OR CARCINOMA, HEPATOCHOLANGIOMA OR HEPATOCHOLAN): active; positive

CCCCOC(=O)c1ccc(O)cc1
carcinogen call (Species: MOUSE, Strain/Sex: ICR/FEMALE, Route: ORAL, 0.15, 0.3, 0.6% IN DIET FOR 102 WK (STUDY DURATION: 106 WK), 0.15, 0.3, 0.6% IN DIET FOR 102 WK (STUDY DURATION: 106 WK)): inactive; negative
carcinogen call (Species: MOUSE, Strain/Sex: ICR/MALE, Route: ORAL, O.15, 0.3, 0.6% IN DIET FOR 102 WK (STUDY DURATION: 106 WK), O.15, 0.3, 0.6% IN DIET FOR 102 WK (STUDY DURATION: 106 WK)): inactive; negative

C#CCO
carcinogen call (Species: Mouse, Strain/Sex: B6C3F1/Female (50/Group), Route: Inhalation, 8, 16, 32 ppm for 6 hr plus 14 min per d, 5 d per wk for 105 wk (Study duration: 105 wk), 8, 16, 32 ppm for 6 hr plus 14 min per d, 5 d per wk for 105 wk (Study duration: 105 wk), Tumor Site: Type of Lesion: Respiratory epithelium: Adenoma (0/50; 2/50; 4/50; 6/50)): active; positive. conclusions of authors: some evidence of carcinogenic activity.
carcinogen call (Species: Mouse, Strain/Sex: B6C3F1/Male (50/Group), Route: Inhalation, 8, 16, 32 ppm for 6 hr plus 14 min per d, 5 d per wk for 105 wk (Study duration: 105 wk), 8, 16, 32 ppm for 6 hr plus 14 min per d, 5 d per wk for 105 wk (Study duration: 105 wk), Tumor Site: Type of Lesion: Respiratory epithelium: Adenoma (0/49; 1/50; 4/50; 7/50), Harderian gland (3/50; 10/50; 6/50; 11/50), Tumor Site: Type of Lesion: Respiratory epithelium: Adenoma (0/49; 1/50; 4/50; 7/50), Harderian gland (3/50; 10/50; 6/50; 11/50)): active; positive. conclusions of authors: some evidence of carcinogenic activity based o
carcinogen call (Species: Rat, Strain/Sex: F344/N / Female (50/Group), Route: Inhalation, 16, 32, 64 ppm for 6 hr plus 14 min per d, 5 d per wk for 105 wk (Study duration: 105 wk), 16, 32, 64 ppm for 6 hr plus 14 min per d, 5 d per wk for 105 wk (Study duration: 105 wk), Tumor Site: Type of Lesion: None): inactive; negative. conclusions of authors: no evidence of carcinogenic activity.
carcinogen call (Species: Rat, Strain/Sex: F344/N / Male (50/Group), Route: Inhalation, 16, 32, 64 ppm for 6 hr plus 14 min per d, 5 d per wk for 105 wk (Study duration: 105 wk), 16, 32, 64 ppm for 6 hr plus 14 min per d, 5 d per wk for 105 wk (Study duration: 105 wk), Tumor Site: Type of Lesion: Respiratory epithelium: Adenoma (0/49; 0/49; 0/50; 3/49)): inactive; negative (although incidence at highest dose exceeded historical controls). con
